# Laboratory results: patent publication US20240277798A1, “CYCLOSPORINE COMPOSITIONS AND METHODS OF USE” (Bacainn Biotherapeutics, Ltd., priority 2021, published 2024)
# “And” between values parts separate entries of the source, which are not always exact repeats. Equal values may be shown once.
# How the values were obtained:
# [1] = system: human neutrophils; assay: PMN transmigration assay (Salmonella typhimurium-infected T84 monolayer, HXA3/MRP2-driven neutrophil migration, MPO readout); format: cell-based
# Experimental: PMN transmigration assay. T84 colorectal cancer cells were grown to confluence on the bottom side of 12 well polycarbonate membrane inserts of a 24 well Transwell® plate. The confluent growth of these epithelial cells results in physiologically-relevant apical (luminal) and basolateral surfaces in the transwells. […] The monolayer was then infected on the apical surface with Salmonella typhimurium for 2 hours to induce hepoxilin A3 (HXA3) efflux through the MRP2 membrane protein and into the apical chamber. […] Freshly isolated and prepared human neutrophils were then added to the basolateral side and allowed to transmigrate through the monolayer for 2 hours. The number of neutrophils migrated to the apical chamber (due to the HXA3 gradient) was then assayed by determination of myeloperoxidase activity (a neutrophil biomarker). Inhibition of transmigration is indicated by lower MPO activity in the apical chamber.
# [2] = Feces stability (rat feces homogenate); format: in vitro ADME, Sprague-Dawley rat; conditions: 10 μM, 37° C., 24 hours, predicted
# Experimental: Feces stability. Immediately prior to the study, male Sprague-Dawley rat feces were collected overnight over a mix of dry and wet ice. Feces were then homogenized in phosphate buffer at pH 6.5 and filtered to remove particles. BT090 ([…]) was incubated in duplicate at 37° C. for a total of 24 hours in the freshly prepared rat feces homogenate. At selected time points (0.5, 2, 6 and 24 hours), a 25 μL aliquot was taken from the incubation mixtures and quenched with 225 μL of acetonitrile containing the internal standards (IS). Samples were then centrifuged to pellet the precipitated proteins and the supernatants were diluted 5-fold. The 0 hour samples were prepared in pre-quenched feces homogenate towards the end of the incubation period. All quenched samples were then submitted to bioanalysis for LC-MS/MS quantification.
# Bioanalysis. BT090 samples were analyzed by LC-MS/MS using a Thermo Accela UPLC and a Thermo Q-Exactive mass spectrometer. The [M+H]+ adducts of the compounds and internal standards were monitored using positive mode electrospray ionization in exact mass mode. […]
# Feces stability. […] All quenched samples are then submitted to bioanalysis for LC-MS/MS quantification.
# Bioanalysis. […] The [M+H]+ adducts of the compounds and internal standards are monitored using positive mode electrospray ionization in exact mass mode. […]
# [3] = Rat PK, plasma concentrations after oral dosing; format: in vivo, Sprague-Dawley rats
# [4] = BT070 10 mg/kg orally, rat, individual animals, 10 mg/kg
# [5] = BT070 10 mg/kg orally, rat, mean
smiles,measurement,setting,value
CC[C@@H]1NC(=O)[C@H]([C@H](O)[C@H](C)CCCCCC(=O)O)N(C)C(=O)[C@H](C(C)C)N(C)C(=O)[C@H](CC(C)C)N(C)C(=O)[C@H](CC(C)C)N(C)C(=O)[C@@H](C)NC(=O)[C@H](C)NC(=O)[C@H](CC(C)C)N(C)C(=O)[C@H](C(C)C)NC(=O)[C@H](CC(C)C)N(C)C(=O)CN(C)C1=O [BT070],dose-response of inhibition of neutrophil migration,"[1]; FIG. 1, result in words",dose-responsive inhibition
same,inhibition of neutrophil migration,"[1]; dose of 100 nM, result in words",exhibit inhibition
same,stability in fresh rat fecal homogenate,[2],stable
same,plasma concentration,"[3]; BT070 10 mg/kg orally, rat, 0.5 h, individual animals, 10 mg/kg",7472.8 ng/mL and 746.7 ng/mL and 2546.3 ng/mL
same,Mean plasma concentration,"[3]; BT070 10 mg/kg orally, rat, 0.5 h, mean",3588.6 ng/mL
same,plasma concentration,"[3]; BT070 10 mg/kg orally, rat, 1 h, individual animals, 10 mg/kg",4382.8 ng/mL and 725.2 ng/mL and 1796.5 ng/mL
same,Mean plasma concentration,"[3]; BT070 10 mg/kg orally, rat, 1 h, mean",2301.5 ng/mL
same,plasma concentration,"[3]; BT070 10 mg/kg orally, rat, 2 h, individual animals, 10 mg/kg",2238.3 ng/mL and 1114.4 ng/mL and 1215.5 ng/mL
same,Mean plasma concentration,"[3]; BT070 10 mg/kg orally, rat, 2 h, mean",1522.8 ng/mL
same,plasma concentration,"[3]; BT070 10 mg/kg orally, rat, 4 h, individual animals, 10 mg/kg",1178.8 ng/mL and 861.5 ng/mL and 448.5 ng/mL
same,Mean plasma concentration,"[3]; BT070 10 mg/kg orally, rat, 4 h, mean",829.6 ng/mL
same,plasma concentration,"[3]; BT070 10 mg/kg orally, rat, 6 h, individual animals, 10 mg/kg",641.5 ng/mL and 543.6 ng/mL and 280.0 ng/mL
same,Mean plasma concentration,"[3]; BT070 10 mg/kg orally, rat, 6 h, mean",488.3 ng/mL
same,plasma concentration,"[3]; BT070 10 mg/kg orally, rat, 8 h, individual animals, 10 mg/kg",312.1 ng/mL and 451.6 ng/mL and 118.1 ng/mL
same,Mean plasma concentration,"[3]; BT070 10 mg/kg orally, rat, 8 h, mean",293.9 ng/mL
same,plasma concentration,"[3]; BT070 10 mg/kg orally, rat, 24 h, individual animals, 10 mg/kg",12.0 ng/mL and 268.9 ng/mL and 22.8 ng/mL
same,Mean plasma concentration,"[3]; BT070 10 mg/kg orally, rat, 24 h, mean",101.2 ng/mL
same,% Extrapolation,[3]; [4],0.3% and 38.42% and 2.46%
same,AUCinf,[3]; [4],17616.8 ng/mL*h and 19158.4* ng/mL*h and 7432.0 ng/mL*h
same,AUClast,[3]; [4],17560.9 ng·h/mL and 11798.3 ng·h/mL and 7249.5 ng·h/mL
same,CL_F,[3]; [4],9.5 mL/min/kg and 8.7* mL/min/kg and 22.43 mL/min/kg
same,Cmax,[3]; [4],7472.8 ng/mL and 1114.4 ng/mL and 2546.3 ng/mL
same,tmax,[3]; [4],0.50 h (2×) and 2.00 h
same,"% Extrapolation, Mean",[3]; [5],13.7%
same,"AUCinf, Mean",[3]; [5],14735.7 ng·h/mL
same,"AUClast, Mean",[3]; [5],12202.9 ng·h/mL
same,"CL_F, Mean",[3]; [5],13.5 mL/min/kg
same,"Cmax, Mean",[3]; [5],3711.2 ng/mL
same,"M.R.T. po, Mean",[3]; [5],10.8 h
same,"tmax, Mean",[3]; [5],1.0 h
same,plasma concentration,"[3]; BT070 as breakdown product after BT051 10 mg/kg orally, rat, 0.5 h, individual animals",3.3 ng/mL and NQ (Not quantifiable. No peak or below limit of quantification (LOQ = 2.5 ng/mL)) (4×)
same,Mean plasma concentration,"[3]; BT070 as breakdown product after BT051 10 mg/kg orally, rat, 0.5 h, mean",3.3 ng/mL
same,plasma concentration,"[3]; BT070 as breakdown product after BT051 10 mg/kg orally, rat, 1 h, individual animals",NQ (Not quantifiable. No peak or below limit of quantification (LOQ = 2.5 ng/mL))
same,plasma concentration,"[3]; BT070 as breakdown product after BT051 10 mg/kg orally, rat, 2 h, individual animals",NQ (Not quantifiable. No peak or below limit of quantification (LOQ = 2.5 ng/mL))
same,plasma concentration,"[3]; BT070 as breakdown product after BT051 10 mg/kg orally, rat, 4 h, individual animals",NQ (Not quantifiable. No peak or below limit of quantification (LOQ = 2.5 ng/mL))
same,plasma concentration,"[3]; BT070 as breakdown product after BT051 10 mg/kg orally, rat, 6 h, individual animals",NQ (Not quantifiable. No peak or below limit of quantification (LOQ = 2.5 ng/mL))
same,plasma concentration,"[3]; BT070 as breakdown product after BT051 10 mg/kg orally, rat, 8 h, individual animals",NQ (Not quantifiable. No peak or below limit of quantification (LOQ = 2.5 ng/mL))
same,plasma concentration,"[3]; BT070 as breakdown product after BT051 10 mg/kg orally, rat, 24 h, individual animals",NQ (Not quantifiable. No peak or below limit of quantification (LOQ = 2.5 ng/mL))
same,Cmax,"[3]; BT070 as breakdown product after BT051 10 mg/kg orally, rat, individual animals",3.3 ng/mL
same,"Cmax, Mean","[3]; BT070 as breakdown product after BT051 10 mg/kg orally, rat, mean",3.3 ng/mL
same,oral bioavailability of the breakdown product,"[3]; BT070 following oral administration of BT051 in rats at 10 mg/kg, result in words",not orally bioavailable
same,detectability in plasma,"[3]; rats, 10 mg/kg orally, result in words",present in the plasma in all subject rats from 15 minutes to 24 hours
